Laboratory results reported in paper PMC4696031 (Cancer, 2013).
Several values for one entry are separate records, joined by “and”; a condition that tells them apart may be missing. Equal values may be shown once.

Tests used:
[1] = system: advanced UC; settings: vinflunine plus BSC, vs 1.5 months BSC alone, P = .001; cited from earlier work
[2] = Phase 2 trial: plasma pharmacokinetics; type: in vivo, patients; settings: for Tmax: first 2-hour intravenous infusion of 300 mg
[3] = system: patients with locally advanced or metastatic urothelial cancer; assay: Phase 2 trial: safety, adverse events; type: in vivo
[4] = system: UC cell lines; settings: cited from earlier work
[5] = system: locally advanced or metastatic urothelial cancer; assay: Phase 2 trial: tumor response; type: in vivo, patients
[6] = system: solid tumors; settings: cited from earlier work
[7] = system: urothelial cancer; settings: cited from earlier work
[8] = system: metastatic UC; settings: cited from earlier work; for long-term progression-free survival (PFS): at 5 years; for complete response (CR) rate / median overall survival (mOS) / overall response rate: first-line, phase 3
[9] = post hoc subgroup: disease progression >6 months after most recent chemotherapy
[10] = post hoc subgroup: disease progression ≤6 months after most recent chemotherapy
[11] = subgroup: patients who did not escalate
[12] = subgroup: patients who escalated to volasertib 350 mg

## CC[C@]12C=CCN3CC[C@@]4(c5cc([C@@]6(C(=O)OC)C[C@@H]7C[C@@H](C(C)(F)F)CN(Cc8c6[nH]c6ccccc86)C7)c(OC)cc5N(C)[C@H]4[C@@](O)(C(=O)OC)[C@@H]1OC(C)=O)[C@@H]32 [Vinflunine, vinflunine]
[1]
  median PFS (mPFS): 3.0 months

## CC[C@@H]1C(=O)N(C)c2cnc(Nc3ccc(C(=O)N[C@H]4CC[C@H](N5CCN(CC6CC6)CC5)CC4)cc3OC)nc2N1C(C)C [Volasertib]
[2]; data not shown
  effect of sex, age, weight, body mass index, or body surface area on PK profile: not significantly affected
[2]; human, plasma, iv, 300 mg
  AUC(0-inf): 5470 ng·h/mL
  Cmax: 253 ng/mL
  MRT: 136 h
  Vd: 7470 L
  clearance: 914 mL/min
  half-life: 150 h
[2]; human, plasma, iv, 300 mg, Median
  Tmax: ~2 h
[2]; human, plasma, iv, 300 mg, Range
  Tmax: 1.53 to 4.17 h
[2]; plasma concentration-time course
  PK behavior: multiexponential PK behavior
[3]; human, in vivo
  Adverse event leading to dose reduction: Diarrhea: 1 (2) No. of Patients (%)
  Adverse event leading to dose reduction: ECG: Prolonged QT: 1 (2) No. of Patients (%)
  Adverse event leading to dose reduction: Fatigue: 1 (2) No. of Patients (%)
  Adverse event leading to dose reduction: Nausea: 1 (2) No. of Patients (%)
  Adverse event leading to dose reduction: Neutropenia: 2 (4) No. of Patients (%)
  Adverse event leading to dose reduction: Thrombocytopenia: 3 (6) No. of Patients (%)
  febrile neutropenia (grade 3): 1 episode
  grade 3 and 4 anemia: 16%
  grade 3 and 4 neutropenia: 28%
  grade 3 and 4 thrombocytopenia: 20%
  patients with dose reductions because of unacceptable toxicities in cycle 1: 4 patients
  patients with dose reductions because of unacceptable toxicities, overall: 14%
  treatment discontinuation because of AE: 1 n
[3]; in vivo
  clinically relevant side effect such as arrhythmias or cardiac dysfunction: No clinically relevant side effect
  cumulative toxicity: No cumulative toxicity was observed
  grade 3 QTc prolongation: One patient
  safety profile: acceptable safety profile
[3]; three patients died during the study because of disease progression
  deaths attributed to the study treatment: none
[4]
  mitotic arrest and apoptosis in UC cells: promote mitotic arrest and apoptosis
[4]; ref data on file, Boehringer Ingelheim
  proliferation of multiple UC cell lines: inhibited the proliferation
[5]; N = 50
  Disease control: PR + SD: 20 (40) No. of patients (%)
  OS rate at 3 mo: 77.2%
  OS rate at 6 mo: 55.5%
  OS: Median [95% CI]: 8.5 [3.9-12.1] mo
  PFS rate at 3 mo: 32%
  PFS rate at 6 mo: 20%
  PFS: Median [95% CI]: 6.1 [5.6-11.1] wk
  patients with partial response: 14%
  patients with stable disease: 26%
[5]; best overall response, N = 50
  Response: SD: 13 (26) No. of patients (%)
[5]; final analysis, N = 50
  patients who achieved a PR as best overall response: 7 patients
[5]; final analysis, N = 50, all PRs
  overall response rate: 14%
[5]; in vivo
  Duration of disease control, PR or SD: Median: 27.0 wk
  Duration of disease control, PR or SD: range: 10.1-77.3 wk
[5]; of the first 20 patients who completed 4 treatment cycles
  patients with PR at preplanned interim efficacy analysis: 2 patients
[5]; [9]
  mPFS: 10.1 weeks
  response rate: 15%
[5]; [10]
  mPFS: 5.6 weeks
  response rate: 14%
[5]; responders
  Duration of PR: range: 29.1-77.3 wk
[5]; [11]
  PR / response rate: 7.4% and 7%
  mOS: 5.8 months
  mPFS: 6.0 weeks and 6 weeks
[5]; [12]
  PR / response rate: 21.7% and 22%
  mOS: 10.6 months
  mPFS: 11.1 weeks
[6]; dose-escalation clinical phase 1 trial
  maximum tolerated dose: 400 mg
[6]; in vivo, iv
  recommended dose for phase 2 trials: 300 mg
[6]; patients with heavily pretreated, metastatic UC
  tumor response in phase 1 trials: partial responses

## Cc1ccc(Nc2nccc(N(C)c3ccc4c(C)n(C)nc4c3)n2)cc1S(N)(=O)=O [pazopanib]
[7]
  antitumor activity in nonrandomized phase 2 trials: modest activity

## gemcitabine plus cisplatin [GC]
[8]
  long-term progression-free survival (PFS): 9.8%
  complete response (CR) rate: approximately 12%
  median overall survival (mOS): 13.8 months
  overall response rate: 49%

## methotrexate, vinblastine, doxorubicin, and cisplatin [MVAC]
[8]
  long-term progression-free survival (PFS): 11.3%
  complete response (CR) rate: approximately 12%
  median overall survival (mOS): 14.8 months
  overall response rate: 46%
